Biological target: T1, erg-mediated K+ channel (Kerg, KV11.1) (Rattus norvegicus, UniProt O08962)
T1 construct: gene Kcnh2; native channel in pituitary GH3 cells
T1 sequence (O08962 1-1163): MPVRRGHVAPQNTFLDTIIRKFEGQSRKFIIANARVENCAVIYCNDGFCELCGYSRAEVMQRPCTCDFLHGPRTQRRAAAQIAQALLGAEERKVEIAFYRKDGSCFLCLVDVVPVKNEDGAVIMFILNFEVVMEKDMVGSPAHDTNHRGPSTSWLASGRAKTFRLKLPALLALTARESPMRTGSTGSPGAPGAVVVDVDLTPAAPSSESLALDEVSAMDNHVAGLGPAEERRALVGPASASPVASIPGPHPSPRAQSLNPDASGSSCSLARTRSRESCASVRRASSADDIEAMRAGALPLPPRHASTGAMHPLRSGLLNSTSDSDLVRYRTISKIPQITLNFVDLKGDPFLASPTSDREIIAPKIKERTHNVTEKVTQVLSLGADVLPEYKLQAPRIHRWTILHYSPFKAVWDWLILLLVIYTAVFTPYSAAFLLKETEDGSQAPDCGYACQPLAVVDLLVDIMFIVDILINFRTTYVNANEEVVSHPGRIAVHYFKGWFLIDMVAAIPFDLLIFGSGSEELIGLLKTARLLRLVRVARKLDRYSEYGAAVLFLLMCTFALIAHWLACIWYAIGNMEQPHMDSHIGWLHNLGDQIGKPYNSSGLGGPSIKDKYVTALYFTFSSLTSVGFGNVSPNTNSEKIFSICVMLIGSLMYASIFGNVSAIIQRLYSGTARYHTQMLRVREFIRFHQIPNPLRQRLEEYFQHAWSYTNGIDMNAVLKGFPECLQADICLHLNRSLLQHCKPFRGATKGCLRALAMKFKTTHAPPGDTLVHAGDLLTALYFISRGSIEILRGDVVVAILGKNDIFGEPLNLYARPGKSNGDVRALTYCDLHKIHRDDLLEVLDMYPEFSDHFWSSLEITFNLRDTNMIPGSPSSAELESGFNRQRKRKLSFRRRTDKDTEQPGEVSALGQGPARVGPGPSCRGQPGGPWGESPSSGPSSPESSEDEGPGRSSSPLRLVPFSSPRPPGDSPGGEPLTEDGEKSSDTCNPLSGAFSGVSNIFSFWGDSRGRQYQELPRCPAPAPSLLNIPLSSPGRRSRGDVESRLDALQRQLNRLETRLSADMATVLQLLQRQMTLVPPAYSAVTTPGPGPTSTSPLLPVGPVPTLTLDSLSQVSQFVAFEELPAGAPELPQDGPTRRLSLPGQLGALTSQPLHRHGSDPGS
Experiment: whole-cell patch clamp, concentration-response of IK(erg); KCNH2 siRNA knockdown
Format: cell-based
Conditions: gh3 cells

c1ccc(C(NCc2cccnc2)(c2ccccc2)c2ccccc2)cc1 [UCL-2077, 3-(triphenylmethylaminomethyl)pyridine]
IC50: 4.7 µM

— publication PMC7073080, “Characterization of Convergent Suppression by UCL-2077 (3-(Triphenylmethylaminomethyl)pyridine), Known to Inhibit Slow Afterhyperpolarization, of erg-Mediated Potassium Currents and Intermediate-Conductance Calcium-Activated Potassium Channels” (International Journal of Molecular Sciences, 2020)
